Reference: publication PMC8222254, “Self-assembly of an anion receptor with metal-dependent kinase inhibition and potent in vitro anti-cancer properties” (Nature Communications, 2021)
Several values for one entry are separate records, joined by “and”; a condition that tells them apart may be missing. Equal entries are not always repeated. Where two headings read alike, the source gives them in different places.

How the values were obtained:
Assay in all cases: Chemosensitivity, 96 h continuous exposure, MTT assay
Assay type in all cases: cell-based, human
A549 = test system: A549
From the text: (§1) All cell lines were purchased from and maintained as monolayers as described by the American Type Culture Collection with the exception of the p53^+/+ and p53^−/− isogenic clones of HCT116 human colorectal adenocarcinoma cells which were a kind gift from Professor Bert Vogelstein[54]. GBM1 cells were established from a primary GBM tumour by Heiko Wurdak and colleagues[32],[33]. Non-cancerous adult brain neural progenitor (NP1) cells were derived from a patient undergoing surgery to treat epilepsy[32],[33]. Cell culture and growth media for NP1 and GBM1 cells were as described[32],[33]. The response of cells following a continuous 96-h exposure to test compounds and platinates was determined using the MTT assay. Potency was recorded as the IC50 and the selectivity index (SI) was defined as the ratio of IC50 values for non-cancer to cancer cell lines with values >1 representing selectivity for cancer cells as opposed to non-cancer cells.
(§2) All cell lines used were maintained at low passage in antibiotic-free media. HT29, DLD-1, HCT116 p53^+/+ and HCT116 p53^−/− are all colorectal adenocarcinoma cell lines derived from different individuals and harbour different combinations of oncogenic lesions (except for the HCT116 isogenic cancer cell clones that are genetically identical except for p53 status). PSN-1, BxPC-3 and MiaPaCa2 are pancreatic carcinoma cell lines and A549 and H460 are lung carcinoma cell lines. HT29, DLD-1, PSN-1, BxPC-3, A549 and H460 cell lines were cultured in RPMI-1640 growth media (Sigma) containing 2 mM L-glutamine, 1 mM sodium pyruvate and 10% foetal bovine serum (FBS). HCT116 (p53^+/+ and p53^−/−) and MiaPaCa2 cell lines were cultured in Dulbecco’s Modified Eagle’s Medium (Sigma), 2 mM L-glutamine and 10% FBS. The ARPE-19 retinal epithelial non-cancer cell line was cultured in DMEM/F12 media (Gibco), 2 mM L-glutamine, 1 mM sodium pyruvate and 10% FBS. The MCF10A non-cancerous human breast epithelial cell line was cultured in Minimal Essential Media Eagle (Sigma), 2 mM L-glutamine, 1 mM sodium pyruvate, 10% FBS and 1x non-essential amino acids (NEAA). NP1 and GBM1 cells were cultured on plasticware coated with poly-L-ornithine (5 µg/ml) and laminin (2.4 µg/ml)[32],[33]. NP1 cells were grown in DMEM/F12 media (Gibco) supplemented with 5% FBS, 20 ng/ml hFGF, 20 ng/ml rhEGF, 0.5x B-27 supplement (Gibco), 0.5x N-2 supplement (Gibco) and 1x GLUTAMAX (Gibco). GBM1 cells were cultured in Neurobasal media (Gibco) supplemented with 40 ng/ml hFGF, 40 ng/ml rhEGF, 0.5x B-27 supplement (Gibco) and 0.5x N-2 supplement (Gibco).
(§3) [L2(Metal)3]^6+ and all the other self-assembling complexes were freshly formed by adding DMSO to individual components and mixing together by pipetting. These were then further diluted in cell culture media such that the final DMSO concentration that cells were exposed to was 0.2% (vehicle control). Cisplatin, oxaliplatin and carboplatin were dissolved in phosphate buffered saline. Cell lines were seeded into 96 well plates at 2 × 10^3 cells per well and incubated overnight at 37 °C. GBM1 cancer stem-like cells were seeded at 3 × 10^3 cells per well and NP1 neural progenitors were seeded at 1.5 × 10^3 cells per well. The following day, media was removed and replaced with fresh media containing test compounds at a range of concentrations. Cells were incubated with test compounds for a further 96 h after which the media was removed and replaced with fresh media (200 μl/well). MTT was added (20 μl at 5 mg/ml) and cells were incubated for a further 4 h. Media and MTT were removed and formazan crystals were dissolved in 150 μl of DMSO and the absorbance of the resulting solution determined at 540 nm. Dose response curves were constructed, and the concentration required to reduce cell growth by 50% (IC50) determined.

ARPE-19 non-cancer cells = test system: ARPE-19 non-cancer cells
From the text: as §1, §2, §3

H460 = test system: H460
From the text: as §1, §2, §3

HCT116 p53-/- = test system: HCT116 p53-/-
From the text: as §1, §2, §3

HT-29 = test system: HT-29
From the text: as §1, §2, §3

MiaPaCa2 = test system: MiaPaCa2
From the text: as §1, §2, §3

PSN1 = test system: PSN1
From the text: as §1, §2, §3

## O=P([O-])([O-])Oc1ccccc1.[Cu+2].[Cu+2].[Cu+2].c1ccc(-c2csc(NCCN(CCNc3nc(-c4ccccn4)cs3)CCNc3nc(-c4ccccn4)cs3)n2)nc1.c1ccc(-c2csc(NCCN(CCNc3nc(-c4ccccn4)cs3)CCNc3nc(-c4ccccn4)cs3)n2)nc1 [[L2Cu3(O3POPh)]4+]
A549; A549, mean of replicates, read-out: Mean IC50
  IC50: 1710 nM
A549; A549, read-out: Mean IC50 values
  IC50: 1710 nM
A549; A549, single replicate, read-out: IC50 values for each replicate
  IC50: 1800 nM and 1600 nM and 1720 nM
A549; IC50 ARPE-19 / IC50 A549
  Selectivity index (ARPE19): 67.55
A549; IC50 MCF10A / IC50 A549
  Selectivity index (MCF10A): 30.17
A549; ratio of IC50, A549
  Relative potency (+ anion to no anion), Ratio + anion:no anion: 7.32
A549; ratio of SI (ARPE-19), A549
  Selectivity indices relative to ARPE-19, Ratio + anion:no anion: 0.299
A549; ratio of SI (MCF 10A), A549
  Selectivity indices relative to MCF10A, Ratio + anion:no anion: 0.146
ARPE-19 non-cancer cells; ARPE-19, mean of replicates, read-out: Mean IC50
  IC50: 115000 nM
ARPE-19 non-cancer cells; ARPE-19, single replicate, read-out: IC50 values for each replicate
  IC50: 179000 nM and 157000 nM and 60700 nM and 64100 nM
ARPE-19 non-cancer cells; ARPE-19 non-cancer, read-out: Mean IC50 values
  IC50: 115000 nM
ARPE-19 non-cancer cells; ratio of IC50, ARPE-19
  Relative potency (+ anion to no anion), Ratio + anion:no anion: 2.19
H460; H460, mean of replicates, read-out: Mean IC50
  IC50: 198 nM
H460; H460, read-out: Mean IC50 values
  IC50: 198 nM
H460; H460, single replicate, read-out: IC50 values for each replicate
  IC50: 122 nM and 234 nM and 163 nM and 228 nM and 245 nM
H460; IC50 ARPE-19 / IC50 H460
  Selectivity index (ARPE19): 582.02
H460; IC50 MCF10A / IC50 H460
  Selectivity index (MCF10A): 259.98
H460; ratio of IC50, H460
  Relative potency (+ anion to no anion), Ratio + anion:no anion: 0.72
H460; ratio of SI (ARPE-19), H460
  Selectivity indices relative to ARPE-19, Ratio + anion:no anion: 3.052
H460; ratio of SI (MCF 10A), H460
  Selectivity indices relative to MCF10A, Ratio + anion:no anion: 1.487
HCT116 p53-/-; HCT116 p53-/-, mean of replicates, read-out: Mean IC50
  IC50: 82 nM
HCT116 p53-/-; HCT116 p53-/-, read-out: Mean IC50 values
  IC50: 82 nM
HCT116 p53-/-; HCT116 p53-/-, single replicate, read-out: IC50 values for each replicate
  IC50: 80 nM and 86 nM
HCT116 p53-/-; IC50 ARPE-19 / IC50 HCT116 p53-/-
  Selectivity index (ARPE19): 1405.37
HCT116 p53-/-; IC50 MCF10A / IC50 HCT116 p53-/-
  Selectivity index (MCF10A): 627.77
HCT116 p53-/-; ratio of IC50, HCT116 p53-/-
  Relative potency (+ anion to no anion), Ratio + anion:no anion: 0.60
HCT116 p53-/-; ratio of SI (ARPE-19), HCT116 p53-/-
  Selectivity indices relative to ARPE-19, Ratio + anion:no anion: 3.658
HCT116 p53-/-; ratio of SI (MCF 10A), HCT116 p53-/-
  Selectivity indices relative to MCF10A, Ratio + anion:no anion: 1.782
HT-29; HT29, mean of replicates, read-out: Mean IC50
  IC50: 695 nM
HT-29; HT29, read-out: Mean IC50 values
  IC50: 695 nM
HT-29; HT-29, single replicate, read-out: IC50 values for each replicate
  IC50: 687 nM and 844 nM and 642 nM and 195 nM and 1590 nM and 213 nM
HT-29; IC50 ARPE-19 / IC50 HT29
  Selectivity index (ARPE19): 165.81
HT-29; IC50 MCF10A / IC50 HT29
  Selectivity index (MCF10A): 74.07
HT-29; ratio of IC50, HT29
  Relative potency (+ anion to no anion), Ratio + anion:no anion: 3.25
HT-29; ratio of SI (ARPE-19), HT29
  Selectivity indices relative to ARPE-19, Ratio + anion:no anion: 0.674
HT-29; ratio of SI (MCF 10A), HT29
  Selectivity indices relative to MCF10A, Ratio + anion:no anion: 0.328
MiaPaCa2; IC50 ARPE-19 / IC50 MiaPaCa2
  Selectivity index (ARPE19): 2.44
MiaPaCa2; IC50 MCF10A / IC50 MiaPaCa2
  Selectivity index (MCF10A): 1.09
MiaPaCa2; MiaPaCa2, mean of replicates, read-out: Mean IC50
  IC50: 47200 nM
MiaPaCa2; MiaPaCa2, read-out: Mean IC50 values
  IC50: 47200 nM
MiaPaCa2; MiaPaCa2, single replicate, read-out: IC50 values for each replicate
  IC50: 50100 nM and 44300 nM and 47100 nM
MiaPaCa2; ratio of IC50, MiaPaCa2
  Relative potency (+ anion to no anion), Ratio + anion:no anion: 4.00
MiaPaCa2; ratio of SI (ARPE-19), MiaPaCa2
  Selectivity indices relative to ARPE-19, Ratio + anion:no anion: 0.548
MiaPaCa2; ratio of SI (MCF 10A), MiaPaCa2
  Selectivity indices relative to MCF10A, Ratio + anion:no anion: 0.267
PSN1; IC50 ARPE-19 / IC50 PSN1
  Selectivity index (ARPE19): 536.00
PSN1; IC50 MCF10A / IC50 PSN1
  Selectivity index (MCF10A): 239.43
PSN1; PSN1, mean of replicates, read-out: Mean IC50
  IC50: 215 nM
PSN1; PSN1, read-out: Mean IC50 values
  IC50: 215 nM
PSN1; PSN1, single replicate, read-out: IC50 values for each replicate
  IC50: 195 nM and 219 nM and 229 nM
PSN1; ratio of IC50, PSN1
  Relative potency (+ anion to no anion), Ratio + anion:no anion: 0.0333
PSN1; ratio of SI (ARPE-19), PSN1
  Selectivity indices relative to ARPE-19, Ratio + anion:no anion: 65.686
PSN1; ratio of SI (MCF 10A), PSN1
  Selectivity indices relative to MCF10A, Ratio + anion:no anion: 32.009
